From paper PMC10410440, “Preclinical PK investigation of a novel IDO1/TDO dual inhibitor—SHR9146 in mouse plasma and tissues by LC-MS/MS” (Frontiers in Oncology, 2023)
Values joined by “and” are separate entries in the source; they are usually repeats but may differ in a detail not shown here. Equal entries are not always repeated. Where two headings read alike, the source gives them in different places.

Assay: Tissue distribution of SHR9146 in mice after oral gavage of 40 mg/kg
Assay type: in vivo, ICR mice
Conditions: male, 40 mg/kg oral gavage; for concentration at 1 h / concentration at 3 h / concentration at 6 h: ICR, mouse, po
Procedure: ICR mice with body weight 16–26 g were supplied by Shanghai Lingchang Biotechnology Co., Ltd. (animal breeding license number SCXK (Shanghai) 2013-0018) and housed at Shanghai Institute of Materia Medica, Chinese Academy of Sciences [animal use license number SYXK (Shanghai) 2015-0027]. The mice used in this study were fasted overnight for 12 h but had free access to water. Food was supplied 4 h post-dose. All experiments in this study were conducted in accordance with the Guidelines for the Care and Use of Laboratory Animals of Shanghai Institute of Materia Medica, Chinese Academy of Sciences.
Another set of 30 mice were randomly assigned into five groups with equal numbers, males and females, for tissue distribution study with oral gavage at a single dose of 40 mg/kg at predetermined different time points: pre-dose and post dose at 1, 3, 6, and 24 h, respectively. The whole brain, heart, liver, spleen, lung, kidney, bladder, pancreas, testis, ovary, uterus, stomach, small intestine, adrenal gland, skin, skeletal muscle, thyroid gland, and abdominal fat tissues as well as the whole blood and plasma samples were harvested. Tissue samples were washed with 0.9% sodium chloride solution to remove the residual blood or contents, blotted on a filter paper, and stored at −70°C prior to the analysis.
Protein precipitation was selected for the pretreatment of both the plasma and the tissue homogenate prepared after thawing at room temperature, cut into pieces, and homogenized with a quintuple methanol–water mixture (1:1, v/v) for each tissue sample.
Briefly as follows, an aliquot of 25-μL plasma or tissue homogenate was spiked with 100 μL of internal standard solution (1 μg/mL for plasma, 0.2 μg/mL for tissue homogenate) and 300 μL of methanol added and vortex mixed for 60 s. The mixture was then centrifuged at 14,000 rpm at 4°C for 5.0 min, and the supernatant was diluted with methanol–water (4:1, v/v) in a ratio of 1:9 for the plasma or 1:1 for the tissue homogenate, and 5 μL of the resulting solution was injected for the LC-MS/MS analysis.
After oral administration of 40 mg/kg SHR9146, samples in different tissues at predetermined time points (pre-drug administration, post-drug administration at 1, 3, 6, and 24 h) were collected and prepared for the analysis. The drug concentrations of SHR9146 (μg/g or μg/mL) were determined for each mouse, and the mean and standard deviation were further obtained (Table S7).

[1] = 24 h, individual mice, 40 mg/kg

SHR9146 concentration in Pancreas (1 h, individual mice, 40 mg/kg): 15.265 µg/g and 8.681 µg/g | SHR9146 concentration in Plasma (1 h, individual mice, 40 mg/kg): 11.481 µg/mL and 5.761 µg/mL | SHR9146 concentration in Small intestine (1 h, individual mice, 40 mg/kg): 24.690 µg/g and 24.120 µg/g | SHR9146 concentration in Bladder (3 h, individual mice, 40 mg/kg): 0.390 µg/g and 6.162 µg/g and 6.598 µg/g | SHR9146 concentration in Brain (3 h, individual mice, 40 mg/kg): BLQ | SHR9146 concentration in Kidney (3 h, individual mice, 40 mg/kg): 0.314 µg/g and 6.873 µg/g and 7.165 µg/g | SHR9146 concentration in Lung (3 h, individual mice, 40 mg/kg): 0.798 µg/g and 7.286 µg/g and 7.382 µg/g | SHR9146 concentration in Pancreas (3 h, individual mice, 40 mg/kg): 0.231 µg/g and 7.160 µg/g and 7.228 µg/g | SHR9146 concentration in Brain (6 h, individual mice): BLQ | SHR9146 concentration in Abdominal fat (6 h, individual mice, 40 mg/kg): BLQ | SHR9146 concentration in Adrenal gland (6 h, individual mice, 40 mg/kg): BLQ and 0.313 μg/g | SHR9146 concentration in Bladder (6 h, individual mice, 40 mg/kg): BLQ and 0.199 μg/g | SHR9146 concentration in Heart (6 h, individual mice, 40 mg/kg): BLQ | SHR9146 concentration in Kidney (6 h, individual mice, 40 mg/kg): 0.159 µg/g and 0.129 µg/g and 0.344 µg/g | SHR9146 concentration in Liver (6 h, individual mice, 40 mg/kg): 0.702 µg/g and 0.351 µg/g and 0.845 µg/g | SHR9146 concentration in Lung (6 h, individual mice, 40 mg/kg): 0.510 µg/g and 0.701 µg/g | SHR9146 concentration in Pancreas (6 h, individual mice, 40 mg/kg): BLQ and 0.127 μg/g | SHR9146 concentration in Plasma (6 h, individual mice, 40 mg/kg): BLQ | SHR9146 concentration in Skeletal muscle (6 h, individual mice, 40 mg/kg): BLQ | SHR9146 concentration in Small intestine (6 h, individual mice, 40 mg/kg): BLQ and 0.152 μg/g | SHR9146 concentration in Spleen (6 h, individual mice, 40 mg/kg): BLQ | SHR9146 concentration in Whole blood (6 h, individual mice, 40 mg/kg): BLQ | SHR9146 concentration in thyroid gland (6 h, individual mice, 40 mg/kg): BLQ | SHR9146 concentration in Abdominal fat (24 h, individual mice): BLQ | SHR9146 concentration in Adrenal gland (24 h, individual mice): BLQ | SHR9146 concentration in Bladder (24 h, individual mice): BLQ | SHR9146 concentration in Brain (24 h, individual mice): BLQ | SHR9146 concentration in Heart (24 h, individual mice): BLQ | SHR9146 concentration in Pancreas (24 h, individual mice): BLQ | SHR9146 concentration in Plasma (24 h, individual mice): BLQ | SHR9146 concentration in Skeletal muscle (24 h, individual mice): BLQ | SHR9146 concentration in Small intestine (24 h, individual mice): BLQ | SHR9146 concentration in Spleen (24 h, individual mice): BLQ | SHR9146 concentration in Testis (24 h, individual mice): BLQ | SHR9146 concentration in Whole blood (24 h, individual mice): BLQ | SHR9146 concentration in thyroid gland (24 h, individual mice): BLQ | SHR9146 concentration in Kidney [1]: BLQ | SHR9146 concentration in Liver [1]: BLQ | SHR9146 concentration in Lung [1]: 0.064 µg/g and 0.105 µg/g | SHR9146 concentration in Skin [1]: BLQ | concentration at 1 h (abdominal fat, 40 mg/kg, 1 h, Mean (n=3), read-out: SHR9146 concentration in Abdominal fat): 7200 ng/g | concentration at 3 h (abdominal fat, 40 mg/kg, 3 h, Mean (n=3), read-out: SHR9146 concentration in Abdominal fat): 4070 ng/g | concentration at 6 h (abdominal fat, 40 mg/kg, 6 h, Mean (n=3), read-out: SHR9146 concentration in Abdominal fat): 75 ng/g | concentration at 1 h (adrenal gland, 40 mg/kg, 1 h, Mean (n=3), read-out: SHR9146 concentration in Adrenal gland): 23600 ng/g | concentration at 1 h (adrenal gland, 40 mg/kg, 1 h, individual mice, read-out: SHR9146 concentration in Adrenal gland): 24100 ng/g | concentration at 3 h (adrenal gland, 40 mg/kg, 3 h, Mean (n=3), read-out: SHR9146 concentration in Adrenal gland): 8450 ng/g | concentration at 6 h (adrenal gland, 40 mg/kg, 6 h, Mean (n=3), read-out: SHR9146 concentration in Adrenal gland): 163 ng/g | concentration at 6 h (adrenal gland, 40 mg/kg, 6 h, individual mice, read-out: SHR9146 concentration in Adrenal gland): 177 ng/g | concentration at 1 h (bladder, 40 mg/kg, 1 h, Mean (n=3), read-out: SHR9146 concentration in Bladder): 12400 ng/g | concentration at 1 h (bladder, 40 mg/kg, 1 h, individual mice, read-out: SHR9146 concentration in Bladder): 12500 ng/g | concentration at 3 h (bladder, 40 mg/kg, 3 h, Mean (n=3), read-out: SHR9146 concentration in Bladder): 4380 ng/g | concentration at 6 h (bladder, 40 mg/kg, 6 h, Mean (n=3), read-out: SHR9146 concentration in Bladder): 163 ng/g | concentration at 6 h (bladder, 40 mg/kg, 6 h, individual mice, read-out: SHR9146 concentration in Bladder): 291 ng/g | concentration at 1 h (brain, 40 mg/kg, 1 h, Mean (n=3), read-out: SHR9146 concentration in Brain): 1890 ng/g | concentration at 1 h (brain, 40 mg/kg, 1 h, individual mice, read-out: SHR9146 concentration in Brain): 2280 ng/g | concentration at 3 h (brain, 40 mg/kg, 3 h, Mean (n=3), read-out: SHR9146 concentration in Brain): 666 ng/g | concentration at 3 h (brain, 40 mg/kg, 3 h, individual mice, read-out: SHR9146 concentration in Brain): 1020 ng/g | concentration at 1 h (heart, 40 mg/kg, 1 h, Mean (n=3), read-out: SHR9146 concentration in Heart): 7320 ng/g | concentration at 1 h (heart, 40 mg/kg, 1 h, individual mice, read-out: SHR9146 concentration in Heart): 8420 ng/g | concentration at 3 h (heart, 40 mg/kg, 3 h, Mean (n=3), read-out: SHR9146 concentration in Heart): 2660 ng/g | concentration at 6 h (heart, 40 mg/kg, 6 h, Mean (n=3), read-out: SHR9146 concentration in Heart): 48 ng/g | concentration at 6 h (heart, 40 mg/kg, 6 h, individual mice, read-out: SHR9146 concentration in Heart): 61 ng/g | concentration at 1 h (kidney, 40 mg/kg, 1 h, Mean (n=3), read-out: SHR9146 concentration in Kidney): 11900 ng/g | concentration at 1 h (kidney, 40 mg/kg, 1 h, individual mice, read-out: SHR9146 concentration in Kidney): 12300 ng/g | concentration at 3 h (kidney, 40 mg/kg, 3 h, Mean (n=3), read-out: SHR9146 concentration in Kidney): 4780 ng/g
SMILES: OCCn1cc(-c2ccc(N3CCC([C@H]4c5c(F)cccc5-c5cncn54)CC3)cc2)cn1 [SHR9146]
SHR9146 concentration in Liver (3 h, individual mice, 40 mg/kg): 1.367 µg/g and 13.792 µg/g and 13.853 µg/g | SHR9146 concentration in Small intestine (3 h, individual mice, 40 mg/kg): 0.411 µg/g and 11.992 µg/g and 8.326 µg/g
